Consider five molecules from patent US7829296B2, “Kinesin polypeptides, polynucleotides encoding same and compositions and methods of using same” (Ramot at Tel-Aviv University Ltd., priority 2005, dated 2010).

In assay [1] the test system is ERK1/2 in MBA-15 cells. The assay can be described thus: Estrogen signaling, ERK1/2 pathway: Western blot for pERK1/2 on whole cell lysates. In kind it is cell-based. The settings on record: FIG. 16A; for 17βE2-induced increase of pERK1/2 after pretreatment: then 10^−8M 17β-estrogen five minutes. The method, then: Western blot analysis and Immunoprecipitation: Cells were harvested from cultures, washed twice with ice-cold PBS and collected in presence of protease inhibitors (Phenylmethylsulfonyl fluoride PMSF, 1 mM; 1-Chloro-3-tosylamido-4-phenyl-2-butanone, TPCK, 10 μg/ml; Aprotinin, 10 μg/ml (Sigma, USA) and phosphatase inhibitor cocktails I and II (Sigma, USA). Samples were spun down at 1500 rpm for 4 minutes and pellets were reconstituted in lyses buffer (50 mM Tris pH 7.5, 150 mM NaCl, 1% NP-40, and protease and phosphatase inhibitors, as above). Following a 20 minute incubation at 4° C., samples were centrifuged at 16,000 g for 5 minutes.
(§1) For Western blot, the membranes were blocked with 5% BSA in TBST (50 mM Tris, pH-7.5, 150 mM NaCl, 0.1% Tween-20, Sigma, USA) for 1 hour at RT or overnight and than incubated with anti-MS-KIF18A. The membranes were washed with TBST and incubated with goat anti-rabbit or goat anti-mouse conjugated to biotin (Dako, Denmark) for 40 minutes at RT and Extravidin-Peroxidase (Sigma, USA) for detection with chemiluminescent substrate (Pierce, USA).
(§2) Estrogen signaling, ERK1/2 pathway: MBA-15 cells were maintained in medium supplemented with 3% charcoal striped FCS for 48 hours prior to the start of the experiment. On the day of the experiment, the cells were pretreated with 25 μM MAPK inhibitor, PD98059 (Calbiochem, USA) and an estrogen antagonist ICI 182,780 10^−6M (Tocris, USA) for 45 minutes. 10^−8M 17β-estrogen (Sigma, USA) was added for five minutes. Cell lysates were used for immunoprecipitation and analyzed by Western blot.
(§3) Immunoprecipitation, Western blot, SDS-PADE gel: All experiments were performed as described in Example 1. Primary antibodies included anti-MS-KIF18A, anti-ER antibodies (Upstate Biotechnologies, USA) or SRA-1010 (Stressgen, Canada), anti-ERK1/2, pERK1/2 (Sigma, USA) or anti-His-tag (Santa Cruz Biotechnologies, USA). For detection a secondary antibody conjugated to biotin-extravidine-peroxidase and chemiluminescent substrate was used (Pierce, USA).
Background: A western blot detects proteins with antibodies after separation by electrophoresis.

Assay [2] concerns ERK1/2 in MBA-15 cells. The assay is described as follows: pERK1/2 in anti-MS-KIF18A immunoprecipitates (MS-KIF18A-ERα complex), Western blot. In kind it is cell-based. The settings on record: for ERK activation in anti-MS-KIF18A immunoprecipitate after pretreatment: then 17β-estrogen. The method, then:
(§4) For immunoprecipitation (IP), anti-MS-KIF18A and protein-A sepharose beads (Sigma, USA) were added to lysates and samples were incubated overnight at 4° C. Immunocomplexes were precipitated at 16,000 g for 1 minute and washed 4 times with lyses buffer. The washed beads were re-suspended in Lamelli sample buffer and boiled for 3 minutes. The proteins were separated on 8% SDS-PAGE gel for 2 hours and transferred to nitrocellulose for 1.5 hours.
as §1, §2, §3

The target of assay [3] is T1, ERα 66 kDa (Homo sapiens, UniProt P03372).
T1 construct: expressed in transfected cells; host or cells: COS-7
T1 sequence (P03372 1-595): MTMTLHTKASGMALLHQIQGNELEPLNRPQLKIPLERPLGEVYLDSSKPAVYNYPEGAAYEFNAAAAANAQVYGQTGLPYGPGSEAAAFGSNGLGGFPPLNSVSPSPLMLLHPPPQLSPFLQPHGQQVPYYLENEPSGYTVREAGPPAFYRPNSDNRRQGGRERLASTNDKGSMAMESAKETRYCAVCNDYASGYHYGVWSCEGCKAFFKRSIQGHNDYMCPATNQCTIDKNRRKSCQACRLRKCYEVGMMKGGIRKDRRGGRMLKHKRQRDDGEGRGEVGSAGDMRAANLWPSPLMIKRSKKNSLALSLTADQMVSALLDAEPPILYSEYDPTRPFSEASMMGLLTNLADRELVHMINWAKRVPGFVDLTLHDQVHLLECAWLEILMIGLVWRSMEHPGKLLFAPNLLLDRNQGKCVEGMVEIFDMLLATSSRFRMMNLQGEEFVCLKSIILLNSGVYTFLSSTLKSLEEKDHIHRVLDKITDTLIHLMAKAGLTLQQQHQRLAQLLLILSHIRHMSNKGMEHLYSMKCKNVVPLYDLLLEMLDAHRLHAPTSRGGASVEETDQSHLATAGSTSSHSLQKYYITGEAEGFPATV
T1 sequence (Q8NI77 1-898 I735V partner): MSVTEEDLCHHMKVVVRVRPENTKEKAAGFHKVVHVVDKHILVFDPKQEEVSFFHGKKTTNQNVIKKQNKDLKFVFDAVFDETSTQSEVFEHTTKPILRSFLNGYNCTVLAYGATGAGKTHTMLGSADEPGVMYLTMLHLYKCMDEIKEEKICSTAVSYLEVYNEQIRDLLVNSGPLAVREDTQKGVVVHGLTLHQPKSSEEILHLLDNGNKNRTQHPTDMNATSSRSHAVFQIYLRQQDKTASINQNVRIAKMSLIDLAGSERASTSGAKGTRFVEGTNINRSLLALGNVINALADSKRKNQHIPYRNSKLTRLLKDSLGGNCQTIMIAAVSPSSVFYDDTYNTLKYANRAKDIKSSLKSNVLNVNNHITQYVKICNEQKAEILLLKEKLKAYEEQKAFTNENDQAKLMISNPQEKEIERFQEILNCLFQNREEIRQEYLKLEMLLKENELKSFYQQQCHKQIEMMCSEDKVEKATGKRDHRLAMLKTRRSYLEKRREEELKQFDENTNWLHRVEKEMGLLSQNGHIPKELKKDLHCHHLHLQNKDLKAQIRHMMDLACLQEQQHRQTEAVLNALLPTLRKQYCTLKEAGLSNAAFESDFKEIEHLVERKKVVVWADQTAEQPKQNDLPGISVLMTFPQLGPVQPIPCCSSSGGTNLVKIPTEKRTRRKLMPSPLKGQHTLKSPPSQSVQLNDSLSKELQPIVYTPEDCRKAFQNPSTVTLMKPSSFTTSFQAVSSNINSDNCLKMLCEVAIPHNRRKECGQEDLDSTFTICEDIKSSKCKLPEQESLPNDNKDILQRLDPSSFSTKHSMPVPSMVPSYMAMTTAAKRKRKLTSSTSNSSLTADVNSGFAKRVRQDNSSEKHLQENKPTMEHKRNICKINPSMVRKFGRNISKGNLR
The assay can be described thus: Co-immunoprecipitation of co-transfected His-MS-KIF18A and ERα 66 kDa in COS-7 cells. In kind it is binding. The note with it: COS-7 cells co-transfected with His-MS-KIF18A and ERα 66 kDa, FIGS. 14A-B. The method, then: as §4, §1
Immunoprecipitation, Western blot, SDS-PADE gel: All experiments were performed as described in Example 1. Primary antibodies included anti-MS-KIF18A, anti-ER antibodies (Upstate Biotechnologies, USA) or SRA-1010 (Stressgen, Canada), anti-ERK1/2, pERK1/2 (Sigma, USA) or anti-His-tag (Santa Cruz Biotechnologies, USA). For detection a secondary antibody conjugated to biotin-extravidine-peroxidase and chemiluminescent substrate was used (Pierce, USA). […]

For assay [4], the system named is ERα. The assay is described as follows: Co-immunoprecipitation of endogenous MS-KIF18A and ERα in MBA-15 cells. The note with it: MBA-15 cell lysates, antibodies directed against MS-KIF18A, FIG. 15. The class given is binding. The method, then: as §4, §1, §3

On to 17β-estrogen [17βE2], for which the “pERK1/2 following 17βE2 stimulation” value in assay [1] (10^−8M 17β-estrogen for five minutes) is “increase”. Besides, the “activated ERK in anti-MS-KIF18A immunoprecipitate following estrogen treatment” value in assay [2] (10^−8M 17β-estrogen five minutes, FIG. 16D lane 4) is given as “increase in activated ERK”.
Regarding `C[C@]12CC[C@@H]3c4ccc(O)cc4C[C@@H](CCCCCCCCC[S+]([O-])CCCC(F)(F)C(F)(F)F)[C@H]3[C@@H]1CC[C@@H]2O` (some centres unmarked) [ICI 182,780], the “17βE2-induced increase of pERK1/2 after pretreatment” value in assay [1] (pretreated with ICI 182,780 10^−6M for 45 minutes) is on record as “inhibited”. In assay [2] (pretreated with ICI 182,780 10^−6M 45 minutes, FIG. 16D lane 3, FIG. 16E), the “ERK activation in anti-MS-KIF18A immunoprecipitate after pretreatment” value is reported as “reduced ERK activation”.
Regarding `COc1cccc(-c2cc(=O)c3ccccc3o2)c1N` [PD98059], the “17βE2-induced increase of pERK1/2 after pretreatment” value in assay [1] (pretreated with 25 μM PD98059 for 45 minutes) is “inhibited”. Further, in assay [2] (pretreated with 25 μM PD98059 45 minutes, FIG. 16D lane 2, FIG. 16E), the “ERK activation in anti-MS-KIF18A immunoprecipitate after pretreatment” value is on record as “reduced ERK activation”.

B1: His-MS-KIF18A: His-tagged MS-KIF18A expressed from pcDNA3.1-His-C-MS-KIF18A in COS-7 cells (protein)
chain: MSVTEEDLCHHMKVVVRVRPENTKEKAAGFHKVVHVVDKHILVFDPKQEEVSFFHGKKTTNQNVIKKQNKDLKFVFDAVFDETSTQSEVFEHTTKPILRSFLNGYNCTVLAYGATGAGKTHTMLGSADEPGVMYLTMLHLYKCMDEIKEEKICSTAVSYLEVYNEQIRDLLVNSGPLAVREDTQKGVVVHGLTLHQPKSSEEILHLLDNGNKNRTQHPTDMNATSSRSHAVFQIYLRQQDKTASINQNVRIAKMSLIDLAGSERASTSGAKGTRFVEGTNINRSLLALGNVINALADSKRKNQHIPYRNSKLTRLLKDSLGGNCQTIMIAAVSPSSVFYDDTYNTLKYANRAKDIKSSLKSNVLNVNNHITQYVKICNEQKAEILLLKEKLKAYEEQKAFTNENDQAKLMISNPQEKEIERFQEILNCLFQNREEIRQEYLKLEMLLKENELKSFYQQQCHKQIEMMCSEDKVEKATGKRDHRLAMLKTRRSYLEKRREEELKQFDENTNWLHRVEKEMGLLSQNGHIPKELKKDLHCHHLHLQNKDLKAQIRHMMDLACLQEQQHRQTEAVLNALLPTLRKQYCTLKEAGLSNAAFESDFKEIEHLVERKKVVVWADQTAEQPKQNDLPGISVLMTFPQLGPVQPIPCCSSSGGTNLVKIPTEKRTRRKLMPSPLKGQHTLKSPPSQSVQLNDSLSKELQPIVYTPEDCRKAFQNPSTVTLMKPSSFTTSFQAVSSNINSDNCLKMLCEVAIPHNRRKECGQEDLDSTFTICEDIKSSKCKLPEQESLPNDNKDILQRLDPSSFSTKHSMPVPSMVPSYMAMTTAAKRKRKLTSSTSNSSLTADVNSGFAKRVRQDNSSEKHLQENKPTMEHKRNICKINPSMVRKFGRNISKGNLR
modifications: left off: small tags and cut ends
notes: His-tagged MS-KIF18A expressed from pcDNA3.1-His-C-MS-KIF18A in COS-7 cells
For the molecule B1, the “interaction with ERα 66 kDa (pull-down by anti-MS-KIF18A and anti-His antibodies)” value in assay [3] is “interaction”.

B2: MS-KIF18A: novel kinesin KIF18A polypeptide of 898 amino acids expressed in mesenchymal stem cells, SEQ ID NO: 2 (protein, listed as Homo sapiens)
chain: MSVTEEDLCHHMKVVVRVRPENTKEKAAGFHKVVHVVDKHILVFDPKQEEVSFFHGKKTTNQNVIKKQNKDLKFVFDAVFDETSTQSEVFEHTTKPILRSFLNGYNCTVLAYGATGAGKTHTMLGSADEPGVMYLTMLHLYKCMDEIKEEKICSTAVSYLEVYNEQIRDLLVNSGPLAVREDTQKGVVVHGLTLHQPKSSEEILHLLDNGNKNRTQHPTDMNATSSRSHAVFQIYLRQQDKTASINQNVRIAKMSLIDLAGSERASTSGAKGTRFVEGTNINRSLLALGNVINALADSKRKNQHIPYRNSKLTRLLKDSLGGNCQTIMIAAVSPSSVFYDDTYNTLKYANRAKDIKSSLKSNVLNVNNHITQYVKICNEQKAEILLLKEKLKAYEEQKAFTNENDQAKLMISNPQEKEIERFQEILNCLFQNREEIRQEYLKLEMLLKENELKSFYQQQCHKQIEMMCSEDKVEKATGKRDHRLAMLKTRRSYLEKRREEELKQFDENTNWLHRVEKEMGLLSQNGHIPKELKKDLHCHHLHLQNKDLKAQIRHMMDLACLQEQQHRQTEAVLNALLPTLRKQYCTLKEAGLSNAAFESDFKEIEHLVERKKVVVWADQTAEQPKQNDLPGISVLMTFPQLGPVQPIPCCSSSGGTNLVKIPTEKRTRRKLMPSPLKGQHTLKSPPSQSVQLNDSLSKELQPIVYTPEDCRKAFQNPSTVTLMKPSSFTTSFQAVSSNINSDNCLKMLCEVAIPHNRRKECGQEDLDSTFTICEDIKSSKCKLPEQESLPNDNKDILQRLDPSSFSTKHSMPVPSMVPSYMAMTTAAKRKRKLTSSTSNSSLTADVNSGFAKRVRQDNSSEKHLQENKPTMEHKRNICKINPSMVRKFGRNISKGNLR
Regarding B2, in assay [4], the “association with endogenous ERα (co-immunoprecipitation)” value is recorded as “confirmed the association”.
